Results: patent publication US9669016B2, “Antiparasitic effect of Bis[3,5-Bis(Benzylidene)-4-Oxo-1-Piperidinyl]amide Derivatives” (priority 2014, dated 2017)
Like-named read-outs stand apart in the source and are kept apart here.

Legend:
T. cruzi epimastigotes = assay: Viability assay (Alamar Blue) on T. cruzi epimastigotes; type: cell-based; conditions: Trypanosoma cruzi
Procedure: (§1) Viability assay on mammalian cells and T. cruzi epimastigotes. The cytotoxicity and anti-trypanosomal activity of the NC compounds was tested in human Hs27 fibroblasts (ATCC CRL-1634), LLC-MK2 cells (ATCC CCL-7), RAW 264.7 murine macrophages (ATCC TIB71) (American Type Culture Collection-ATCC, Manassa, Va.), mice intraperitoneal macrophages and in epimastigote forms of T. cruzi Y strain using Alamar Blue assay (Invitrogen—Life Technology, Grand Island, N.Y.). The experiments were performed as described using a range of concentration of 500 μM to 1 nM.

L. major promastigotes = assay: Annexin V/PI assay on L. major promastigotes; type: cell-based, Leishmania major; conditions: 24 h; NC901 2.5 μM, NC884 2.5 μM, NC2459 312 nM
Procedure: (§2) Apoptosis was evaluated using Alexa Fluor® 488 Annexin V/PI Apoptosis Kit (Initrogen™-Life technology, Grand Island, N.Y.). L. major promastigotes and BALB/c mice intraperitoneal macrophages were treated with each compound for 24 h. After exposure, the parasites (5×10^7) and macrophages (5×10^6) were harvested, washed and re-suspended with PBS. The Annexin V/PI staining of cells followed the manufacturer's instructions. Then the samples were analyzed with Beckman Coulter Fc500 flow cytometer (Beckman Coulter, USA). The results were expressed as the number of annexin positive cells per thousand cells counted.

LLC-MK2 cells = assay: Viability assay (Alamar Blue) on LLC-MK2 cells; type: cell-based, Rhesus monkey; conditions: Macaca mulatta, read-out: Mammalian cells IC50 ± SD, LLC-MK2
Procedure: Rhesus monkey kidney epithelial cell LLC-MK2 (American Type Culture Collection-ATCC, Manassas, Va. # CCL-7), Hs-27 human fibroblasts (American Type Culture Collection-ATCC, Manassas, Va.), RAW 264.7 murine macrophages (American Type Culture Collection-ATCC, Manassas, Va.) U2-09 human osteoblasts (American Type Culture Collection-ATCC, Manassas, Va. # HTB-99) (American Type Culture Collection-ATCC, Manassas, Va.) cells were cultured in Dulbecco's Modified Eagle's Medium (DMEM), supplemented with 10% inactivated FBS, along with 1% of 10,000 units/ml penicillin and 10 mg/ml streptomycin in 0.9% sodium chloride. Intraperitoneal BALB/c mice macrophages were obtained and cultured in DMEM high-glucose, +L-glu, supplemented with 10% FBS (inactivated). The procedure was performed minimizing the distress and pain for the animals following the NIH guidance and animal protocol approved by UTEP's Institutional Animal Care and Use Committee (IACUC).
as §1
The statistical significance (p-value) of the compound's cytotoxicity was calculated using the General Linear Mixed Model Analysis. This analysis was used to test the linear effect of the logarithm of dose on the logit transformation of the percent survival. The IC50 was obtained as the exponent of the negative ratio of the y-intercept and the slope of the fitted regression line (SAS Software, Version 9.2). […] All experiments had statistical significance determined at p≦0.05(*), p≦0.01(**), and p≦0.001(***).

[1] = tested on: BALB/c mice intraperitoneal macrophages; assay: Annexin V/PI assay on intraperitoneal macrophages; type: cell-based, mouse
Procedure: as §2

[2] = tested on: L. major intracellular amastigotes; assay: High-content imaging infectivity assay, L. major amastigote-infected macrophages; type: cell-based, Leishmania major; conditions: for most effective concentration against L. major intracellular amastigotes / IC50: 48 h treatment; for IC50: Leishmania major, Peritoneal macrophage, in Mus musculus, in BALB/c peritoneal macrophages; for percentage of infected macrophages vs 1% DMSO control: constraints 2, 5 and 8 or more amastigotes per macrophage; for effectiveness compared with positive control amphotericin B 5 μM: percentage of infected macrophages, NC901, NC884 at 5 μM
Procedure: In vitro infectivity experiments were carried out to determine the activity of compounds NC901, NC884, and NC2459 against L. major intracellular amastigotes. Intraperitoneal macrophages isolated from BALB/c mice were infected with L. major metacyclic promastigotes. After the parasites were allowed to establish infection for 48 hours, the compounds were added and incubated for an additional 48 hours. The compounds anti-leishmanial activity was evaluated using the BD Pathway Bioimager™. In the analysis several constraints were used, such as 2, 5, and 8 or more amastigotes per macrophage.
In vitro evaluation of the NC drug library on infectivity experiments by high-content imaging assay. Mice intraperitoneal macrophages and human osteoblasts were placed in a microplate and infected with the amastigote forms of L. major strain Friedlin clone V1 and T. cruzi Y strain respectably, followed by treatment with NC lead compounds (as shown in Table 1). Briefly, Image acquisition and analyses of the plates were carried out using the BD Pathway 855 high-resolution fluorescence bioimager system (BD Biosciences). Filter sets appropriate for the excitation and emission spectra of Draq5 were utilized. Images from […] (3×3 montage) were acquired per well with a 20× objective. To perform the host cell segmentation and counting of parasites, the BD AttoVision™ v1.6.2 Sub Object analysis was used. Draq5 creates a background, staining the host cell and parasite nucleus, but defining the cytoplasm as well, determining this way the amount of parasites within each mammalian cell. The host cell nucleus was excluded by size difference. Subsequently, the infection index was calculated based on the mean of these triplicate values by multiplying the percentage of infected cells and the constraints used in the HCIA assay that was of 2, 3, 5, and 8 parasites per cell.

[3] = 96 h incubation, read-out: T. cruzi Epimastigotes EC50
[4] = 96 hour incubation, read-out: EC50, T. cruzi epimastigotes
[5] = same concentrations as in L. major promastigotes, 24 h

Compound: CN(C)CC1CCC(CN(C)C)C1=O (stereo not drawn) [NC884]
- EC50 (T. cruzi epimastigotes; [3]): 475 nM
- EC50 (T. cruzi epimastigotes; [4]): 475 nM
- annexin V binding (apoptosis-like effect) vs 1% DMSO (L. major promastigotes): significantly induced an apoptosis-like effect
- IC50 (LLC-MK2 cells): 15100 ± 330 nM
- annexin V positive cells in macrophages [1, 5]: No effect
- most effective concentration against L. major intracellular amastigotes [2]: 5 µM
- IC50 [2]: 937 ± 130 nM
- percentage of infected macrophages vs 1% DMSO control [2]: significant decrease in the percentage of infected cells
- effectiveness compared with positive control amphotericin B 5 μM [2]: not as effective as the positive control amphotericin B

Compound: CN(C)CC1CCCC(CN(C)C)C1=O (stereo not drawn) [NC901]
- EC50 (T. cruzi epimastigotes; [3]): 468 nM
- EC50 (T. cruzi epimastigotes; [4]): 468 nM
- annexin V binding (apoptosis-like effect) vs 1% DMSO (L. major promastigotes): significantly induced an apoptosis-like effect
- IC50 (LLC-MK2 cells): 8020 ± 250 nM
- annexin V positive cells in macrophages [1]: No effect
- most effective concentration against L. major intracellular amastigotes [2]: 5 µM
- IC50 [2]: 1870 ± 200 nM
- percentage of infected macrophages vs 1% DMSO control [2]: significant decrease in the percentage of infected cells
- effectiveness compared with positive control amphotericin B 5 μM [2]: not as effective as the positive control amphotericin B

Compound: O=C1/C(=C/c2ccccc2)CN(C(=O)C(=O)N2C/C(=C\c3ccccc3)C(=O)/C(=C/c3ccccc3)C2)C/C1=C\c1ccccc1 [NC2459]
- EC50 (T. cruzi epimastigotes; [3]): 20 nM
- EC50 (T. cruzi epimastigotes; [4]): 20 nM
- annexin V binding (apoptosis-like effect) vs 1% DMSO (L. major promastigotes): significantly induced an apoptosis-like effect
- IC50 (LLC-MK2 cells): 2000 ± 93 nM
- annexin V positive cells in macrophages [1, 5]: No effect
- most effective concentration against L. major intracellular amastigotes [2]: 1.25 µM
- IC50 [2]: 625 ± 110 nM
- percentage of infected macrophages vs 1% DMSO control [2]: significant decrease in the percentage of infected cells
- effectiveness compared with positive control amphotericin B 5 μM [2]: significantly more effective
